Source: patent US11795177B2, “Substituted quinoline analogs as aldehyde dehydrogenase 1A1 (ALDH1A1) inhibitors” (THE UNITED STATES OF AMERICA, AS REPRESENTED BY THE …, priority 2017, dated 2023)
pIC50: −log10 of the molar value. Counter-ions that a name gives are not always drawn.

Columns and labels:
ALDH1A1 enzyme = molecular target: T1, ALDH1A1 enzyme (Homo sapiens, UniProt P00352); test: ALDH1A1 enzymatic assay (in vitro); type: biochemical; details: ALDH1A1 enzyme 20 nM, NAD+ 1 mM, propionaldehyde 80 μM; read-out: ALDH1A1 IC50
T1 sequence (P00352 1-501): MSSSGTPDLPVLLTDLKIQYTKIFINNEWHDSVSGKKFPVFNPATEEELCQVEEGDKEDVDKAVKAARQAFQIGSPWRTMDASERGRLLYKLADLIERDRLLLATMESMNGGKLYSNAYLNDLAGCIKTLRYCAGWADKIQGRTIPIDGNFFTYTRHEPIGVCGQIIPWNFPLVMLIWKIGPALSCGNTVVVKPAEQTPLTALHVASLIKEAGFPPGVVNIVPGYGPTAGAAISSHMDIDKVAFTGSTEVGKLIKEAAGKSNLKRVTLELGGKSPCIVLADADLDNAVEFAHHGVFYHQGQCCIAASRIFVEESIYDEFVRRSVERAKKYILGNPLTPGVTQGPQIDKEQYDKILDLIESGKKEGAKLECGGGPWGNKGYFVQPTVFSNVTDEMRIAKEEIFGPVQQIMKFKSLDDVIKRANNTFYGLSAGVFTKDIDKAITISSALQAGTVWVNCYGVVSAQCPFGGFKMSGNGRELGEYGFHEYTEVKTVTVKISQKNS
Method in brief: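 ALDH1A1 (20 nM final) in 100 mM HEPES pH 7.5, 0.01% Tween 20 was preincubated 15 min at RT with compound (968 pM–57.2 μM final), then started with 1 mM NAD+ and 80 μM propionaldehyde. NADH fluorescence (ex 340/em 450 nm) followed kinetically for 10 min; change normalized to no-inhibitor and no-enzyme controls for percent inhibition and curve fitting.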

MIA PaCa-2 cells = test: MIA PaCa2 cell-based assay (1,536-well high-content imaging ALDEFLUOR assay); parameters: species or system human; details: Homo sapiens, 0.5 h, ALDEFLUOR BAAA substrate 500 nM, 30 minutes
Method in brief: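 High-content ALDEFLUOR imaging readout: BAA-retaining cells in FITC channel scored against Hoechst-counted nuclei. Before imaging, MIA PaCa-2 cells seeded at 1,000 per well received final 500 nM BAAA and 0.5 nM Hoechst with compounds in 16-point series (1.4 nM to 47.8 μM), 30 min, 37° C.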

pIC50 (ALDH1A1 enzyme) | pIC50 (MIA PaCa-2 cells) | SMILES
> 6.30 | 5.00 to 6.00 | COc1cc2ncc(C(=O)N3CCN(C(=O)C(C)C)CC3)c(N3CCC(C)(C#N)CC3)c2cc1OC [Example 111, 1-(3-(4-isobutyrylpiperazine-1-carbonyl)-6,7-dimethoxyquinolin-4-yl)-4-methylpiperidine-4-carbonitrile]
> 6.30 | < 5.00 | CCOC(=O)N1CCN(C(=O)c2cnc3ccc(F)cc3c2N2CCC(C)(C#N)CC2)CC1 [Example 88, Ethyl 4-(4-(4-cyano-4-methylpiperidin-1-yl)-6-fluoroquinoline-3-carbonyl)piperazine-1-carboxylate]
> 6.30 | 5.00 to 6.00 | COc1ccc2c(N3CCC(C)(C#N)CC3)c(C(=O)N3CCN(S(=O)(=O)C4CC4)CC3)cnc2c1 [Example 106, 1-(3-(4-(cyclopropylsulfonyl)piperazine-1-carbonyl)-7-methoxyquinolin-4-yl)-4-methylpiperidine-4-carbonitrile]
5.00 to 6.00 | < 5.00 | O=C(c1cnc2ccc(F)cc2c1N1CCC(CO)(c2ccccc2)CC1)N1CCN(C(=O)C2CC2)CC1 [Example 255, (4-(cyclopropanecarbonyl)piperazin-1-yl)(6-fluoro-4-(4-(hydroxymethyl)-4-phenylpiperidin-1-yl)quinolin-3-yl)methanone]
> 6.30 | 5.00 to 6.00 | C[C@H]1CN(C(=O)c2cnc3ccc(F)cc3c2N2CCC(C)(C#N)CC2)CCN1C(=O)C1CC1 [Example 227, (S)-1-(3-(4-(cyclopropanecarbonyl)-3-methylpiperazine-1-carbonyl)-6-fluoroquinolin-4-yl)-4-methylpiperidine-4-carbonitrile]
> 6.30 | < 5.00 | CC(=O)N1CCN(C(=O)c2cnc3ccc(F)cc3c2N2CCC3(CC2)OCCO3)CC1 [Example 51, 1-(4-(6-fluoro-4-(1,4-dioxa-8-azaspiro[4.5]decan-8-yl)quinoline-3-carbonyl)piperazin-1-yl)ethanone]
> 6.30 | < 5.00 | CC(C)C(=O)N1CCN(C(=O)c2cnc3ccc(F)cc3c2N2CCC3(CC2)OCCO3)CC1 [Example 49, 1-(4-(6-fluoro-4-(1,4-dioxa-8-azaspiro[4.5]decan-8-yl)quinoline-3-carbonyl)piperazin-1-yl)-2-methylpropan-1-one]
> 6.30 | 5.00 to 6.00 | CN(C)C(=O)N1CCN(C(=O)c2cnc3c(F)cc(F)cc3c2N2CCC(C)(C#N)CC2)CC1 [Example 183, 4-(4-(4-cyano-4-methylpiperidin-1-yl)-6,8-difluoroquinoline-3-carbonyl)-N,N-dimethylpiperazine-1-carboxamide]
> 6.30 | 5.00 to 6.00 | CN(C)C(=O)N1CCN(C(=O)c2cnc3c(F)cc(F)cc3c2N2CCC3(CC2)OCCO3)CC1 [Example 180, 4-(6,8-difluoro-4-(1,4-dioxa-8-azaspiro[4.5]decan-8-yl)quinoline-3-carbonyl)-N,N-dimethylpiperazine-1-carboxamide]
> 6.30 | < 5.00 | CCNC(=O)N1CCN(C(=O)c2cnc3ccc(F)cc3c2N2CCC(C)(C#N)CC2)CC1 [Example 89, 4-(4-(4-cyano-4-methylpiperidin-1-yl)-6-fluoroquinoline-3-carbonyl)-N-ethylpiperazine-1-carboxamide]
> 6.30 | 5.00 to 6.00 | COc1c(F)cc2c(N3CCC4(CC3)OCCO4)c(C(=O)N3CCN(S(C)(=O)=O)CC3)cnc2c1F [Example 133, (6,8-difluoro-7-methoxy-4-(1,4-dioxa-8-azaspiro[4.5]decan-8-yl)quinolin-3-yl)(4-(methylsulfonyl)piperazin-1-yl)methanone]

The remaining lines, values behind:

SMILES | pIC50 (ALDH1A1 enzyme) | pIC50 (MIA PaCa-2 cells)
N#CC1(c2ccc(-c3c(C(=O)N4CC5(CC(O)C5)C4)cnc4ccc(F)cc34)cc2)CC1 [Cpd. 335, 1-(4-(6-fluoro-3-(6-hydroxy-2-azaspiro[3.3]heptane-2-carbonyl)quinolin-4-yl)phenyl)cyclopropane-1-carbonitrile] | > 6.30 | 5.00 to 6.00
CN(C)S(=O)(=O)N1CCN(C(=O)c2cnc3ccsc3c2N2CCC(C#N)(c3ccccc3)CC2)CC1 [Example 287, 4-(7-(4-cyano-4-phenylpiperidin-1-yl)thieno[3,2-b]pyridine-6-carbonyl)-N,N-dimethylpiperazine-1-sulfonamide] | > 6.30 | > 6.30
COc1ccc2ncc(C(=O)N3CCN(C4CCCC4)CC3)c(N3CCC4(CC3)OCCO4)c2c1 [Example 9, (4-cyclopentylpiperazin-1-yl)(6-methoxy-4-(1,4-dioxa-8-azaspiro[4.5]decan-8-yl)quinolin-3-yl)methanone, TFA] | 5.00 to 6.00 | < 5.00
CCS(=O)(=O)N1CCN(C(=O)c2cnc3c(cnn3C)c2N2CCC(C)(C#N)CC2)CC1 [Example 207, 1-(5-(4-(ethylsulfonyl)piperazine-1-carbonyl)-1-methyl-1H-pyrazolo[3,4-b]pyridin-4-yl)-4-methylpiperidine-4-carbonitrile] | > 6.30 | 5.00 to 6.00
CCS(=O)(=O)N1CCN(C(=O)c2cnc3c(F)cc(F)cc3c2N2CCC3(CC2)OCCO3)CC1 [Example 161, (6,8-difluoro-4-(1,4-dioxa-8-azaspiro[4.5]decan-8-yl)quinolin-3-yl)(4-(ethylsulfonyl)piperazin-1-yl)methanone] | > 6.30 | 5.00 to 6.00
CCC(=O)N1CCN(C(=O)c2cnc3ccc(Cl)cc3c2N2CCC(C)(C#N)CC2)CC1 [Example 118, 1-(6-chloro-3-(4-propionylpiperazine-1-carbonyl)quinolin-4-yl)-4-methylpiperidine-4-carbonitrile] | > 6.30 | 5.00 to 6.00
CC1(C#N)CCN(c2c(C(=O)N3CCN(S(C)(=O)=O)CC3)cnc3cc(F)c(F)cc23)CC1 [Example 136, 1-(6,7-difluoro-3-(4-(methylsulfonyl)piperazine-1-carbonyl)quinolin-4-yl)-4-methylpiperidine-4-carbonitrile] | > 6.30 | 5.00 to 6.00
CS(=O)(=O)N1CCN(C(=O)c2cnc3ccc(F)cc3c2-c2ccc(C3(CO)CC3)cc2)CC1 [Example 280, (6-fluoro-4-(4-(1-(hydroxymethyl)cyclopropyl)phenyl)quinolin-3-yl)(4-(methylsulfonyl)piperazin-1-yl)methanone] | > 6.30 | > 6.30
COc1ccc2ncc(C(=O)N3CCN(C(C)C)CC3)c(N3CCC4(CC3)OCCO4)c2c1 [Example 8, (4-isopropylpiperazin-1-yl)(6-methoxy-4-(1,4-dioxa-8-azaspiro[4.5]decan-8-yl)quinolin-3-yl)methanone, TFA] | 5.00 to 6.00 | < 5.00
COC1(C)CCN(c2c(C(=O)N3CCN(C(=O)C4CC4)CC3)cnc3ccc(F)cc23)CC1 [Example 61, (4-(cyclopropanecarbonyl)piperazin-1-yl)(6-fluoro-4-(4-methoxy-4-methylpiperidin-1-yl)quinolin-3-yl)methanone] | > 6.30 | < 5.00
CS(=O)(=O)C1CCN(C(=O)c2cnc3ccc(Cl)cc3c2N2CCC(C#N)(c3ccccc3)CC2)CC1 [Cpd. 310, 1-(6-chloro-3-(4-(methylsulfonyl)piperidine-1-carbonyl)quinolin-4-yl)-4-phenylpiperidine-4-carbonitrile] | > 6.30 | > 6.30
CS(=O)(=O)C1CCN(C(=O)c2cnc3ccsc3c2N2CCC(C#N)(c3ccccc3)CC2)CC1 [Example 293, 1-(6-(4-(methylsulfonyl)piperidine-1-carbonyl)thieno[3,2-b]pyridin-7-yl)-4-phenylpiperidine-4-carbonitrile] | > 6.30 | > 6.30
C[C@@H]1CN(C(=O)c2cnc3ccc(F)cc3c2N2CCC(C)(C#N)CC2)C[C@H](C)N1C(=O)C1CC1 [Example 228, 1-(3-((3R*,5S*)-4-(cyclopropanecarbonyl)-3,5-dimethylpiperazine-1-carbonyl)-6-fluoroquinolin-4-yl)-4-methylpiperidine-4-carbonitrile] | 5.00 to 6.00 | < 5.00
COc1ccc2ncc(C(=O)N3CCC(OC)CC3)c(N3CCC(OC)CC3)c2c1 [Example 4, (6-methoxy-4-(4-methoxypiperidin-1-yl)quinolin-3-yl)(4-methoxypiperidin-1-yl)methanone, TFA] | > 6.30 | 5.00 to 6.00
N#CC1(c2ccc(F)cc2)CCN(c2c(C(=O)N3CCN(C(=O)C4CC4)CC3)cnc3ccc(F)cc23)CC1 [Example 278, 1-(3-(4-(cyclopropanecarbonyl)piperazine-1-carbonyl)-6-fluoroquinolin-4-yl)-4-(4-fluorophenyl)piperidine-4-carbonitrile] | > 6.30 | > 6.30
CS(=O)(=O)C1CCN(C(=O)c2cnc3ccsc3c2-c2ccc(C3(C#N)CC3)cc2)CC1 [Example 283] | > 6.30 | > 6.30
